Assay results: ChEMBL document CHEMBL5537145, “Design, synthesis and evaluation of novel UDCA-aminopyrimidine hybrids as ATX inhibitors for the treatment of hepatic and pulmonary fibrosis” (Eur J Med Chem, 2024)
Active and inactive are the calls of the source. The calls are words filed in the database; no cut-off is given here.

Tests used:
Autotaxin [1] = target: T1, Autotaxin (Homo sapiens, UniProt Q13822); experiment: Inhibition of human ATX in using LPC as substrate by fluorescence based microplate reader assay
CCC-HPF-1 [2] = experiment: Anti-pulmonary fibrosis activity against TGF-beta1 stimulated human CCC-HPF-1 cells assessed as reduction in Smad3 phosphorylation incubated for 48 hrs by Western blotting analysis; type: functional, cell-based; settings: dose 5-20 µM
LX-2 [3] = experiment: Effect on total Smad2 level in TGF-beta1 stimulated human LX2 cells at 5 to 20 uM incubated for 48 hrs by Western blotting analysis; type: functional, cell-based; settings: dose 5-20 µM
LX-2 [4] = experiment: Anti-hepatic fibrosis activity against TGF-beta1 stimulated human LX2 cells assessed as reduction in FN mRNA expression level at 5 to 20 uM incubated for 48 hrs by quantitative real-time PCR analysis; type: functional, cell-based; settings: dose 5-20 µM
CCC-HPF-1 [5] = experiment: Effect on total Smad3 level in TGF-beta1 stimulated human CCC-HPF-1 cells at 5 to 20 uM incubated for 48 hrs by Western blotting analysis; type: functional, cell-based; settings: dose 5-20 µM
LX-2 [6] = experiment: Anti-hepatic fibrosis activity against TGF-beta1 stimulated human LX2 cells assessed as inhibition of Smad2/3 nuclear translocation at 10 uM incubated for 48 hrs by DAPI staining based immunofluorescence analysis; type: functional, cell-based
LX-2 [7] = experiment: Anti-hepatic fibrosis activity against TGF-beta1 stimulated human LX2 cells assessed as reduction in Smad2 phosphorylation incubated for 48 hrs by Western blotting analysis; type: functional, cell-based; settings: dose 5-20 µM
LX-2 [8] = experiment: Effect on total Smad3 level in TGF-beta1 stimulated human LX2 cells at 5 to 20 uM incubated for 48 hrs by Western blotting analysis; type: functional, cell-based; settings: dose 5-20 µM
CCC-HPF-1 [9] = experiment: Cytotoxicity against human CCC-HPF-1 cells assessed as reduction in cell viability at 2.5 to 80 uM incubated for 48 hrs by MTT assay; type: toxicity, cell-based; settings: ccc-hpf-1, 48 h, dose 2.5-80 µM
LX-2 [10] = experiment: Cytotoxicity against human LX2 cells assessed as reduction in cell viability at 2.5 to 80 uM incubated for 48 hrs by MTT assay; type: toxicity, cell-based; settings: lx-2, 48 h, dose 2.5-80 µM
LX-2 [11] = experiment: Anti-hepatic fibrosis activity against TGF-beta1 stimulated human LX2 cells assessed as reduction in COL1A1 mRNA expression level at 5 to 20 uM incubated for 48 hrs by quantitative real-time PCR analysis; type: functional, cell-based; settings: dose 5-20 µM
CCC-HPF-1 [12] = experiment: Anti-pulmonary fibrosis activity against TGF-beta1 stimulated human CCC-HPF-1 cells assessed as reduction in COL1A1 protein expression level at 5 to 20 uM incubated for 48 hrs by Western blotting analysis; type: functional, cell-based; settings: dose 5-20 µM
CCC-HPF-1 [13] = experiment: Anti-migratory activity against TGF-beta1 stimulated human CCC-HPF-1 cells at 10 uM incubated for 24 hrs by light microscopic analysis; type: functional, cell-based
LX-2 [14] = experiment: Anti-migratory activity against TGF-beta1 stimulated human LX2 cells at 10 uM incubated for 24 hrs by light microscopic analysis; type: functional, cell-based
CCC-HPF-1 [15] = experiment: Anti-pulmonary fibrosis activity against TGF-beta1 stimulated human CCC-HPF-1 cells assessed as reduction in Smad2 phosphorylation incubated for 48 hrs by Western blotting analysis; type: functional, cell-based; settings: dose 5-20 µM
CCC-HPF-1 [16] = experiment: Anti-pulmonary fibrosis activity against TGF-beta1 stimulated human CCC-HPF-1 cells assessed as reduction in alpha-SMA mRNA expression level at 5 to 20 uM incubated for 48 hrs by quantitative real-time PCR analysis; type: functional, cell-based; settings: dose 5-20 µM
CCC-HPF-1 [17] = experiment: Anti-pulmonary fibrosis activity against TGF-beta1 stimulated human CCC-HPF-1 cells assessed as reduction in COL1A1 mRNA expression level at 5 to 20 uM incubated for 48 hrs by quantitative real-time PCR analysis; type: functional, cell-based; settings: dose 5-20 µM
CCC-HPF-1 [18] = experiment: Anti-pulmonary fibrosis activity against TGF-beta1 stimulated human CCC-HPF-1 cells assessed as inhibition of Smad2/3 nuclear translocation at 10 uM incubated for 48 hrs by DAPI staining based immunofluorescence analysis; type: functional, cell-based
LX-2 [19] = experiment: Anti-hepatic fibrosis activity against TGF-beta1 stimulated human LX2 cells assessed as reduction in alpha-SMA mRNA expression level at 5 to 20 uM incubated for 48 hrs by quantitative real-time PCR analysis; type: functional, cell-based; settings: dose 5-20 µM
CCC-HPF-1 [20] = experiment: Anti-pulmonary fibrosis activity against TGF-beta1 stimulated human CCC-HPF-1 cells assessed as reduction in FN protein expression level at 5 to 20 uM incubated for 48 hrs by Western blotting analysis; type: functional, cell-based; settings: dose 5-20 µM
CCC-HPF-1 [21] = experiment: Anti-pulmonary fibrosis activity against TGF-beta1 stimulated human CCC-HPF-1 cells assessed as reduction in FN mRNA expression level at 5 to 20 uM incubated for 48 hrs by quantitative real-time PCR analysis; type: functional, cell-based; settings: dose 5-20 µM
CCC-HPF-1 [22] = experiment: Anti-pulmonary fibrosis activity against TGF-beta1 stimulated human CCC-HPF-1 cells assessed as reduction in alpha-SMA protein expression level at 5 to 20 uM incubated for 48 hrs by Western blotting analysis; type: functional, cell-based; settings: dose 5-20 µM
Autotaxin [23] = target: T1, Autotaxin; experiment: Potency index, ratio of GLPG-1690 IC50 to test compound IC50 for inhibition of human ATX in using LPC as substrate by fluorescence based microplate reader assay
CCC-HPF-1 [24] = experiment: Effect on total Smad2 level in TGF-beta1 stimulated human CCC-HPF-1 cells at 5 to 20 uM incubated for 48 hrs by Western blotting analysis; type: functional, cell-based; settings: dose 5-20 µM
LX-2 [25] = experiment: Anti-hepatic fibrosis activity against TGF-beta1 stimulated human LX2 cells assessed as reduction in FN protein expression level at 5 to 20 uM incubated for 48 hrs by Western blotting analysis; type: functional, cell-based; settings: dose 5-20 µM
LX-2 [26] = experiment: Anti-hepatic fibrosis activity against TGF-beta1 stimulated human LX2 cells assessed as reduction in alpha-SMA protein expression level at 5 to 20 uM incubated for 48 hrs by Western blotting analysis; type: functional, cell-based; settings: dose 5-20 µM
LX-2 [27] = experiment: Anti-hepatic fibrosis activity against TGF-beta1 stimulated human LX2 cells assessed as reduction in Smad3 phosphorylation incubated for 48 hrs by Western blotting analysis; type: functional, cell-based; settings: dose 5-20 µM
LX-2 [28] = experiment: Anti-hepatic fibrosis activity against TGF-beta1 stimulated human LX2 cells assessed as reduction in COL1A1 protein expression level at 5 to 20 uM incubated for 48 hrs by Western blotting analysis; type: functional, cell-based; settings: dose 5-20 µM

C[C@H](CCC(=O)N1CCc2nc(NCCCc3ccccc3)ncc2C1)[C@H]1CC[C@H]2[C@@H]3[C@@H](O)C[C@@H]4C[C@H](O)CC[C@]4(C)[C@H]3CC[C@]12C
IC50 (Autotaxin [1]): 165 nM

COc1ccc(CCNc2ncc3c(n2)CCN(C(=O)CC[C@@H](C)[C@H]2CC[C@H]4[C@@H]5[C@@H](O)C[C@@H]6C[C@H](O)CC[C@]6(C)[C@H]5CC[C@]24C)C3)cc1
IC50 (Autotaxin [1]): 136 nM

C[C@H](CCC(=O)N1CCc2nc(NCCc3ccc(F)cc3)ncc2C1)[C@H]1CC[C@H]2[C@@H]3[C@@H](O)C[C@@H]4C[C@H](O)CC[C@]4(C)[C@H]3CC[C@]12C
IC50 (Autotaxin [1]): 91.7 nM

C[C@H](CCC(=O)N1CCc2nc(NCCc3cccc(Br)c3)ncc2C1)[C@H]1CC[C@H]2[C@@H]3[C@@H](O)C[C@@H]4C[C@H](O)CC[C@]4(C)[C@H]3CC[C@]12C
IC50 (Autotaxin [1]): 27.7 nM

C[C@H](CCC(=O)N1CCc2nc(NCc3ccc(Br)cc3)ncc2C1)[C@H]1CC[C@H]2[C@@H]3[C@@H](O)C[C@@H]4C[C@H](O)CC[C@]4(C)[C@H]3CC[C@]12C
IC50 (Autotaxin [1]): 243 nM

C[C@H](CCC(=O)N1CCc2nc(NCCc3ccccc3Br)ncc2C1)[C@H]1CC[C@H]2[C@@H]3[C@@H](O)C[C@@H]4C[C@H](O)CC[C@]4(C)[C@H]3CC[C@]12C
IC50 (Autotaxin [1]): 92.5 nM

C[C@H](CCC(=O)N1CCc2nc(NCCc3ccc(Cl)cc3)ncc2C1)[C@H]1CC[C@H]2[C@@H]3[C@@H](O)C[C@@H]4C[C@H](O)CC[C@]4(C)[C@H]3CC[C@]12C
Activity (CCC-HPF-1 [2]): Dose-Dependent Effect
Activity (LX-2 [3]): inactive
Activity (LX-2 [4]): Active
Activity (CCC-HPF-1 [5]): inactive
Activity (LX-2 [6]): Active
IC50 (Autotaxin [1]): 7.51 nM
Activity (LX-2 [7]): Dose-Dependent Effect
Activity (LX-2 [8]): inactive
Activity (CCC-HPF-1 [9]): Non-Toxic
Activity (LX-2 [10]): Non-Toxic
Activity (LX-2 [11]): Active
Activity (CCC-HPF-1 [12]): Active
Activity (CCC-HPF-1 [13]): Active
Activity (LX-2 [14]): Active
Activity (CCC-HPF-1 [15]): Dose-Dependent Effect
Activity (CCC-HPF-1 [16]): Active
Activity (CCC-HPF-1 [17]): Active
Activity (CCC-HPF-1 [18]): Active
Activity (LX-2 [19]): Active
Activity (CCC-HPF-1 [20]): Active
Activity (CCC-HPF-1 [21]): Active
Activity (CCC-HPF-1 [22]): Active
Ratio IC50 (Autotaxin [23]): 9
Activity (CCC-HPF-1 [24]): inactive
Activity (LX-2 [25]): Active
Activity (LX-2 [26]): Active
Activity (LX-2 [27]): Dose-Dependent Effect
Activity (LX-2 [28]): Active

C[C@H](CCC(=O)N1Cc2cnc(NC3Cc4ccccc4C3)nc2C1)[C@H]1CC[C@H]2[C@@H]3[C@@H](O)C[C@@H]4C[C@H](O)CC[C@]4(C)[C@H]3CC[C@]12C
IC50 (Autotaxin [1]): 438 nM

C[C@H](CCC(=O)N1CCc2nc(NCc3cc(Cl)cc(Cl)c3)ncc2C1)[C@H]1CC[C@H]2[C@@H]3[C@@H](O)C[C@@H]4C[C@H](O)CC[C@]4(C)[C@H]3CC[C@]12C
IC50 (Autotaxin [1]): 40.2 nM

C[C@H](CCC(=O)N1CCc2nc(NCc3ccccc3)ncc2C1)[C@H]1CC[C@H]2[C@@H]3[C@@H](O)C[C@@H]4C[C@H](O)CC[C@]4(C)[C@H]3CC[C@]12C
IC50 (Autotaxin [1]): 342 nM

C[C@H](CCC(=O)N1CCc2nc(N3CCC(c4ccccc4)CC3)ncc2C1)[C@H]1CC[C@H]2[C@@H]3[C@@H](O)C[C@@H]4C[C@H](O)CC[C@]4(C)[C@H]3CC[C@]12C
IC50 (Autotaxin [1]): 43.9 nM
